Assay results taken from patent US8709743B2, “Inhibitors of bacterial nitric oxide synthase, and related screening methods” (Massachusetts Institute of Technology, priority 2007, dated 2014).

Experiments:
[1] = test system: SK—N—SH human neuroblastoma cells; assay: Detection of NO produced by cNOS in estradiol-stimulated SK—N—SH cells (fluorescence microscopy); format: cell-based
Protocol: (§1) FIG. 10 illustrates Cu(FL5) detection of NO produced by cNOS. (a) NO detection in SK—N—SH cells by Cu^II(FL5). Left to right: 25 min incubation of Cu(FL5) (1 μM) and 5, 10, 15, 25 min after co-treatment of Cu(FL5) (1 μM) and 17β-estradiol (100 nM). Images were taken with a Nikon Eclipse TS100 microscope after removing the DMEM media and washing the cells with PBS. Top: fluorescence images; bottom: phase contrast images. (b) Fluorescence intensity (F(t)/FCu(FL5)) from a was plotted against incubation time. (c) NO production with or without of L-NNA. Right: NO detection in cells after 10 min co-incubation of Cu(FL5) (1 μM) and 17β-estradiol (100 nM). Left: NO detection in cells pre-treated with L-NNA for 1 h before addition of Cu(FL5) and 17β-estradiol.
We investigated the ability of Cu(FL5) to detect NO produced in SK—N—SH human neuroblastoma cells under physiological conditions, since constitutive NO synthase (“cNOS”) in this cell line can be activated by estrogen to produce NO. […] The NO-dependent fluorescence response, monitored after simultaneous administration of 17β-estradiol (100 nM) and Cu(FL5) (1 μM) to the cells, was complete within 5 min with a 4.0±0.6-fold increase in fluorescence (FIGS. 10a and b). […]
Firstly, Cu(FL5) visualizes NO in the estradiol-stimulated neuroblastoma cells with brighter fluorescence than DAF-2 DA (o-diaminofluorescein diacetate). […]

[2] = FL5 binding of Cu(II): absorption titration with CuCl2 and fluorescence quenching; conditions: 1 μM FL5 solution, 37° C.
Protocol: Derivatized fluorescein molecules are excellent biosensors because they excite and emit in a region of the visible spectrum that is relatively free of interference. We prepared the fluorescein-based ligand FL5 (FIG. 7) by reacting 7′-chloro-4′-fluorescein-carboxaldehyde with 8-aminoquinaldine. We generated the Cu(II) fluorescein-based NO probe Cu(FL5) (FIG. 4) in situ reacting FL5 (prepared as described below) with CuCl2 in a 1:1 ratio in buffered aqueous solution (50 mM PIPES, pH 7.0, 100 mM KCl). […] A Job's plot was constructed to evaluate the nature of the FL5:Cu(II) complex by following the UV-vis absorption spectral change at 512 nm in pH 7.0 buffered solution. A break at 0.5 indicated the formation of a 1:1 complex.
The fluorescence of a 1 μM FL5 solution was diminished by 18±3% upon introduction of an equimolar quantity of CuCl2 at 37° C. Addition of excess NO to a buffered aqueous Cu(FL5) solution led to an immediate 11.2±1.5-fold increase in fluorescence (FIG. 8). […] The lower detection limit for NO is 5 nM.

[3] = Fluorescence response of the sensor to NO in buffered aqueous solution
[4] = test system: Raw 264.7 murine macrophage; assay: Detection of NO produced by iNOS in LPS and IFN-γ stimulated Raw 264.7 cells (fluorescence microscopy); format: cell-based; conditions: 12 h incubation period
[5] = Stability of nitrosated ligand at pH 7.0 (LC-MS); format: physicochemical; conditions: pH 7.0 buffered aqueous solution
Text: High resolution MS of FL5-^14NO and FL-^15NO were also obtained, showing m/z=600.0729 for FL5-^14NO and 601.0736 for FL5-^15NO, corresponding to [FL5+NO—H+Cl]^− (calcd. m/z 600.0729 and 601.0700).

iNOS = molecular target: T1, iNOS (Mus musculus, UniProt P29477); assay: Attenuation of Cu(FL5) fluorescence response by iNOS inhibitor in stimulated Raw 264.7 cells; format: cell-based, murine
T1 construct: endogenous in cells; host or cells: Raw 264.7 murine macrophage cells (ATCC), stimulated with LPS and IFN-gamma

cNOS = assay: Attenuation of Cu(FL5) fluorescence response by cNOS inhibitor in SK—N—SH cells; format: cell-based, human; conditions: SK—N—SH cells pre-treated with L-NNA for 1 h, 17β-estradiol
Protocol: as §1
We investigated the ability of Cu(FL5) to detect NO produced in SK—N—SH human neuroblastoma cells under physiological conditions, since constitutive NO synthase (“cNOS”) in this cell line can be activated by estrogen to produce NO. Estrogen administration leads to an increase in the cytosolic Ca(II) concentration that alters the structure of calmodulin, which in turn activates cNOS. The NO-dependent fluorescence response, monitored after simultaneous administration of 17β-estradiol (100 nM) and Cu(FL5) (1 μM) to the cells, was complete within 5 min with a 4.0±0.6-fold increase in fluorescence (FIGS. 10a and b). […]

T1 sequence (P29477 whole entry): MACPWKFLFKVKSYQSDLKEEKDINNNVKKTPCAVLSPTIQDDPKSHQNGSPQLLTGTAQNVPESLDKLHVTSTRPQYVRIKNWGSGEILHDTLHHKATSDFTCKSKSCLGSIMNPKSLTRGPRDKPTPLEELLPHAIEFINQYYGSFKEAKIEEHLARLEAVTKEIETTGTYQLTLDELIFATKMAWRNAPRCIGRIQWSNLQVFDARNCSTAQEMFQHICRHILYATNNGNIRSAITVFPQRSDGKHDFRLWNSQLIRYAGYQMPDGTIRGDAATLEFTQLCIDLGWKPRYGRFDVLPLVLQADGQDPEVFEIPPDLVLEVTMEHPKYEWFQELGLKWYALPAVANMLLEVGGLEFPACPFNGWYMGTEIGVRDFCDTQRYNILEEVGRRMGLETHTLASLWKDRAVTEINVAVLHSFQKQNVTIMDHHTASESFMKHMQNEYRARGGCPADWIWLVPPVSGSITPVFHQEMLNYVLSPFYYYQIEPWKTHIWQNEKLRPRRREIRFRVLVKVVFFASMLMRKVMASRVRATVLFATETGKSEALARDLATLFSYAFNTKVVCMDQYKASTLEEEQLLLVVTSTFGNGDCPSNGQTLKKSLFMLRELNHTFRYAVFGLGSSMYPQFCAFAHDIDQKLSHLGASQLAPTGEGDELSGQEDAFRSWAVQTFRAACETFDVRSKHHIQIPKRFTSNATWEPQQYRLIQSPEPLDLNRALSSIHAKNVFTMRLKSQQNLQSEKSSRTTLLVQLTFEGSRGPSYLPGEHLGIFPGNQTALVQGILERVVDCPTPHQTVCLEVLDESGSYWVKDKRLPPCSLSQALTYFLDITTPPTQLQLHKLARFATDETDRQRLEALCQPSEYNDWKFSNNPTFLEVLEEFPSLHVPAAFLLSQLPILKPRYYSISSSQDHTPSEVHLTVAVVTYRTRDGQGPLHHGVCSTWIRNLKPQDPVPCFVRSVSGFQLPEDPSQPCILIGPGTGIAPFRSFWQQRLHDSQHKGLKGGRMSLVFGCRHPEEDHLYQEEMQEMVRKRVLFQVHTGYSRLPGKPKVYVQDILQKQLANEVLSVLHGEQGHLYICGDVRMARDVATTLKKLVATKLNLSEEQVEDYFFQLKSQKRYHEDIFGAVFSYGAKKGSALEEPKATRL

CC(=O)Oc1ccc2c(c1)Oc1cc(OC(C)=O)ccc1C21OC(=O)c2cc(N)c(N)cc21 [DAF-2 DA, o-diaminofluorescein diacetate, reference compound]
fluorescence change of treated cells after activation of cNOS ([1]; 30 min after activation of cNOS): only a slight fluorescence increase

Cc1ccc2cccc(NCc3c(O)ccc4c(-c5ccccc5C(=O)O)c5cc(Cl)c(=O)cc-5oc34)c2n1 [FL5, 2-{2-chloro-6-hydroxy-5-[(2-methyl-quinolin-8-ylamino)-methyl]-3-oxo-3H-xanthen-9-yl}-benzoic acid]
fluorescence change in stimulated SK—N—SH cells in the absence of Cu(II) ion ([1]; over a period of 25 min): no fluorescence increase | fluorescence diminished upon introduction of an equimolar quantity of CuCl2 [2]: 18±3% | increase in fluorescence when treated with excess NO over 30 min ([3]; no Cu(II): copper-free FL5 or FL5 with Cu(I)): 1.5±0.2 fold | turn-on fluorescence in stimulated Raw 264.7 cells without Cu(II) ion [4]: turn-on fluorescence emission was not observed

Cc1ccc2cccc(N(Cc3c(O)ccc4c(-c5ccccc5C(=O)O)c5cc(Cl)c(=O)cc-5oc34)N=O)c2n1 [FL5-NO, 2-{2-chloro-6-hydroxy-5-[((2-methylquinolin-8-yl)(nitroso)amino)-methyl]-3-oxo-3H-xanthen-9-yl}-benzoic acid]
stability at pH 7.0 [5]: stable for several days

CNC(=N)NCCC[C@H](N)C(=O)O [L-NMA, N^G-methyl-L-arginine]
Cu(FL5) fluorescence response in the presence of iNOS inhibitor (iNOS): notably weaker fluorescence response

N=C(NCCC[C@H](N)C(=O)O)N[N+](=O)[O-] [L-NNA, N^G-nitro-L-arginine]
Cu(FL5) fluorescence response in the presence of cNOS inhibitor (cNOS): notably weaker fluorescence response

o-diaminofluorescein [DAF-2, reference compound]
fluorescence in the presence of NO and the absence of O2 ([3]; over a period of 1 h): unchanged
